Measurements published in patent publication US9963467B2, “Boronic acid derivatives and therapeutic uses thereof” (Rempex Pharmaceuticals, Inc., priority 2014, dated 2018).

Legend:
[1] = tested on: ec302 (TEM-10); assay: Tigemonam potentiation (MPC@4), ec302; type: cell-based
[2] = target: P99 (Enterobacter cloacae, UniProt P05364); assay: Ki, nitrocefin cleavage by purified enzyme, P99; type: biochemical; conditions: nitrocefin reporter substrate; read-out: Ki (P99, NCF)
Method in brief: (§1)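 Readout: nitrocefin hydrolysis, A490 recorded every 10 sec over 10 min. Enzyme and inhibitor (varied concentrations) preincubated 10 min, RT, in reaction buffer before substrate addition.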

[3] = tested on: EC1010 (CMY-6); assay: Tigemonam potentiation (MPC@4), EC1010; type: cell-based; conditions: BLI with tigemonam at 4 μg/mL
[4] = tested on: EC1010 (CMY-6); assay: organism not typed; type: cell-based
[5] = target: KPC-2 (Klebsiella pneumoniae, UniProt Q9F663); assay: Ki, nitrocefin cleavage by purified enzyme, KPC-2; type: biochemical; conditions: nitrocefin reporter substrate; read-out: Ki (KPC-2, NCF)
Chain of KPC-2 (Q9F663 25-293, looked up, species assumed): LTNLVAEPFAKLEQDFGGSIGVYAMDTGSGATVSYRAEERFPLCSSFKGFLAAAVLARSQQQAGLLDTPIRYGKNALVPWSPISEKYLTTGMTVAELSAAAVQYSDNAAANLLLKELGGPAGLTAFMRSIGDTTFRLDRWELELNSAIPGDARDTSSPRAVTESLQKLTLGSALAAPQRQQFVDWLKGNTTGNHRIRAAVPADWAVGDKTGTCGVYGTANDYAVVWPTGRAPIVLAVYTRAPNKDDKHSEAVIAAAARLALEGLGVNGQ
Method in brief: as §1

[6] = tested on: ec308 (SHV-5); assay: Aztreonam potentiation (MPC@4), ec308; type: cell-based; conditions: BLI with aztreonam at 4 μg/mL
[7] = tested on: KP1086 (OXA-48); assay: Biapenem potentiation (MPC@1), KP1086; conditions: BLI with biapenem at 1 μg/mL
[8] = tested on: KP1004 (KPC-2); assay: Biapenem potentiation (MPC@1), KP1004; conditions: BLI with biapenem at 1 μg/mL
[9] = tested on: KP1009 (CTX-M-15); assay: organism not typed; type: cell-based
[10] = tested on: KP1010 (SHV-12); assay: Tigemonam potentiation (MPC@4), KP1010; type: cell-based
[11] = tested on: ec308 (SHV-5); assay: Tigemonam potentiation (MPC@4), ec308; type: cell-based
[12] = tested on: KP1005 (CTX-M-14); assay: Tigemonam potentiation (MPC@4), KP1005; type: cell-based; conditions: BLI with tigemonam at 4 μg/mL
[13] = target: SHV-12 (Klebsiella pneumoniae, UniProt P0AD64, E235K/G234S/L31Q); assay: Ki, nitrocefin cleavage by purified enzyme, SHV-12; type: biochemical; conditions: nitrocefin reporter substrate; read-out: Ki (SHV-12, NCF)
Chain of SHV-12 (P0AD64 22-286 L31Q/G234S/E235K): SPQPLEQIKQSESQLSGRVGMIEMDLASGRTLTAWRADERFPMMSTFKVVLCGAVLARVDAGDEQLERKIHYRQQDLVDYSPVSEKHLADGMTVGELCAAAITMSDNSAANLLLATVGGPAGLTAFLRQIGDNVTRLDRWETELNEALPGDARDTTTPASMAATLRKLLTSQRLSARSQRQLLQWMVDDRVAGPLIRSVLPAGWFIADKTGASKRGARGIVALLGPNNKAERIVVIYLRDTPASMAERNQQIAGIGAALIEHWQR
Method in brief: as §1

[14] = tested on: ECL1002; assay: Tigemonam potentiation (MPC@4), ECL1002; type: cell-based; conditions: BLI with tigemonam at 4 μg/mL
[15] = target: CTX-M-14 (Escherichia coli, UniProt Q9L5C7); assay: Ki, nitrocefin cleavage by purified enzyme, CTX-M-14; type: biochemical; conditions: nitrocefin reporter substrate; read-out: Ki (CTX-M-14, NCF)
Chain of CTX-M-14 (Q9L5C7 29-291): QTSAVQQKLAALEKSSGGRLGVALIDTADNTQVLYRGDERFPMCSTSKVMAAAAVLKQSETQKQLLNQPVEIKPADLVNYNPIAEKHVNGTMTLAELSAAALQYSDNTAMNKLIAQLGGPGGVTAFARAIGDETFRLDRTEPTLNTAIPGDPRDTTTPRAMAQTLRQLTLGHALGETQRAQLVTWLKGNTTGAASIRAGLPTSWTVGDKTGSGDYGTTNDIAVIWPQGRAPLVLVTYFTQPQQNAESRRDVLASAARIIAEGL
Method in brief: as §1

[16] = tested on: ec302 (TEM-10); assay: Aztreonam potentiation (MPC@4), ec302; type: cell-based; conditions: BLI with aztreonam at 4 μg/mL
[17] = tested on: ECL1002; assay: Aztreonam potentiation (MPC@4), ECL1002; type: cell-based; conditions: BLI with aztreonam at 4 μg/mL
[18] = tested on: KP1009 (CTX-M-15); assay: Tigemonam potentiation (MPC@4), KP1009; type: cell-based; conditions: BLI with tigemonam at 4 μg/mL
[19] = target: OXA-48 (Klebsiella pneumoniae, UniProt Q6XEC0); assay: Ki, nitrocefin cleavage by purified enzyme, OXA-48; type: biochemical; conditions: nitrocefin reporter substrate; read-out: Ki (OXA-48, NCF)
Chain of OXA-48 (Q6XEC0 23-265, looked up, species assumed): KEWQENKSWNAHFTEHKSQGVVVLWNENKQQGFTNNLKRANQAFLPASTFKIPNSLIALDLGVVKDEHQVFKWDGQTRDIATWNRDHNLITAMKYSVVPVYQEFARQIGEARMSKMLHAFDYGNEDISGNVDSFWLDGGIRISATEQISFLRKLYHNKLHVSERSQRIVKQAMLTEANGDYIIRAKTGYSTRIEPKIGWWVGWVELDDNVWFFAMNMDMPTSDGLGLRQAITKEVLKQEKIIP
Method in brief: as §1

[20] = target: Pa AmpC (Pseudomonas aeruginosa, UniProt P24735); assay: Ki, nitrocefin cleavage by purified enzyme, Pa AmpC; type: biochemical; conditions: nitrocefin reporter substrate; read-out: Ki (Pa AmpC, NCF)
Chain of Pa AmpC (P24735 27-397): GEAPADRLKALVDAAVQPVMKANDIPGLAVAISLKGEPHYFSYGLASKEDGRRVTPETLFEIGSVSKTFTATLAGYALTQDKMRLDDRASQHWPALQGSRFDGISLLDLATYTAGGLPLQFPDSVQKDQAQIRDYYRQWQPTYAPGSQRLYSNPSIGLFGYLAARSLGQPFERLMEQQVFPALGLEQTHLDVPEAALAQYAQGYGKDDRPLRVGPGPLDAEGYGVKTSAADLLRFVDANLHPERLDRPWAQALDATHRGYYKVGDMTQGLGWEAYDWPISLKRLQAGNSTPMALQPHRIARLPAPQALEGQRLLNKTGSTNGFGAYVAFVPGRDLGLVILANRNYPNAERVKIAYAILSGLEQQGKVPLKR
Method in brief: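 Inhibitor potency was expressed as Ki, measured spectrophotometrically against purified enzyme using nitrocefin cleavage read at 490 nm after a 10 min room-temperature preincubation with inhibitor.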

[21] = tested on: KP1005 (CTX-M-14); assay: Aztreonam potentiation (MPC@4), KP1005; type: cell-based; conditions: BLI with aztreonam at 4 μg/mL
[22] = tested on: KP1010 (SHV-12); assay: Aztreonam potentiation (MPC@4), KP1010; type: cell-based

Chain of P99 (P05364 21-381): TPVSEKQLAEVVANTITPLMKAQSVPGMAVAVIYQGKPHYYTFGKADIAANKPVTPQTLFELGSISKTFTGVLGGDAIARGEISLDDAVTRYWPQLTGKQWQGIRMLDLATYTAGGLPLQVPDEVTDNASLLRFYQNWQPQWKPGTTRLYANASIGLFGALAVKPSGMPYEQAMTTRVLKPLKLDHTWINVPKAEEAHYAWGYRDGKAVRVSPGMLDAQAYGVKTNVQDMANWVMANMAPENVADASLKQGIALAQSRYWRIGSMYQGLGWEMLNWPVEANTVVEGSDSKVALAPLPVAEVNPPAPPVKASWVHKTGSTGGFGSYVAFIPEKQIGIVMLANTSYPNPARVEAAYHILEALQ

Structure (SMILES) | TIG MPC4 TEM-10 ec302 [1] | AZT MPC4 CMY-6 EC1010 [4] | AZT MPC4 SHV-5 ec308 [6] | BPM MPC1 OXA-48 KP1086 [7] | BPM MPC1 KP1004 KPC-2 [8] | AZT MPC4 CTX-M-15 KP1009 [9] | TIG MPC4 SHV-12 KP1010 [10] | TIG MPC4 SHV-5 ec308 [11] | TIG MPC4 CTX-M-14 KP1005 [12] | TIG MPC4 ECL1002 [14] | Ki [15] | AZT MPC4 ECL1002 [17] | TIG MPC4 CTX-M-15 KP1009 [18] | Ki [19] | AZT MPC4 CTX-M-14 KP1005 [21] | further results
O=CN[C@H]1Cc2ccc(F)c(C(=O)O)c2OB1O [Compound 6, (R)-7-fluoro-3-formamido-2-hydroxy-3,4-dihydro-2H-benzo[e][1,2]oxaborinine-8-carboxylic acid] | Z (key: X: MIC of less than 1 ng/mL; Y: MIC of 1 μg/mL to 10 μg/mL; Z: MIC of greater than 10 μg/mL) | Y (key: X: MIC of less than 1 ng/mL; Y: MIC of 1 μg/mL to 10 μg/mL; Z: MIC of greater than 10 μg/mL) | Y (MIC of 1 μg/mL to 10 μg/mL) | Y (MIC of 1 μg/mL to 10 μg/mL) | X (MIC of less than 1 μg/mL) | Y (key: X: MIC of less than 1 ng/mL; Y: MIC of 1 μg/mL to 10 μg/mL; Z: MIC of greater than 10 μg/mL) | Y (key: X: MIC of less than 1 ng/mL; Y: MIC of 1 μg/mL to 10 μg/mL; Z: MIC of greater than 10 μg/mL) | Y (key: X: MIC of less than 1 ng/mL; Y: MIC of 1 μg/mL to 10 μg/mL; Z: MIC of greater than 10 μg/mL) | Y (MIC of 1 μg/mL to 10 μg/mL) | X (MIC of less than 1 μg/mL) | < 1 nM | Y (MIC of 1 μg/mL to 10 μg/mL) | Y (MIC of 1 μg/mL to 10 μg/mL) | 1 to 10 nM | Y (MIC of 1 μg/mL to 10 μg/mL) | Ki [2]: > 10 nM; TIG MPC4 CMY-6 EC1010 [3]: X (MIC of less than 1 μg/mL); Ki [5]: > 10 nM; Ki [13]: < 1 nM; AZT MPC4 TEM-10 ec302 [16]: Y (MIC of 1 μg/mL to 10 μg/mL); Ki [20]: > 10 nM
NC(=O)CC(=O)N[C@H]1Cc2cccc(C(=O)O)c2OB1O [E, reference compound] | Z (key: X: MIC of less than 1 ng/mL; Y: MIC of 1 μg/mL to 10 μg/mL; Z: MIC of greater than 10 μg/mL) | X (key: X: MIC of less than 1 ng/mL; Y: MIC of 1 μg/mL to 10 μg/mL; Z: MIC of greater than 10 μg/mL) | X (MIC of less than 1 ng/mL) | Y (MIC of 1 μg/mL to 10 μg/mL) | X (MIC of less than 1 μg/mL) | X (key: X: MIC of less than 1 ng/mL; Y: MIC of 1 μg/mL to 10 μg/mL; Z: MIC of greater than 10 μg/mL) | X (key: X: MIC of less than 1 μg/mL; Y: MIC of 1 μg/mL to 10 μg/mL; Z: MIC of greater than 10 μg/mL) | Y (key: X: MIC of less than 1 ng/mL; Y: MIC of 1 μg/mL to 10 μg/mL; Z: MIC of greater than 10 μg/mL) | Y (MIC of 1 μg/mL to 10 μg/mL) | X (MIC of less than 1 μg/mL) | < 1 nM | X (MIC of less than 1 ng/mL) | Y (MIC of 1 μg/mL to 10 μg/mL) | < 1 nM | X (MIC of less than 1 ng/mL) | AZT MPC4 SHV-12 KP1010 [22]: X (key: X: MIC of less than 1 ng/mL; Y: MIC of 1 μg/mL to 10 μg/mL; Z: MIC of greater than 10 μg/mL)
